# Results: patent US8901042B2, “High throughput screen for measuring membrane effects” (Cornell University, priority 2009, dated 2014)
# Like-named read-outs stand apart in the source and are kept apart here.
# Experiments:
# Shaker potassium channel = Shaker potassium channel (Drosophila melanogaster, UniProt P08510); details: cited from earlier work
# [1] = system: gramicidin A (gA) channels in DC22:1PC lipid bilayer vesicles; experiment: gramicidin-based stopped-flow fluorescence quench assay (Tl+ influx into ANTS-filled, gA-doped LUVs); format: biochemical, Bacillus brevis; details: for Flourescence: concentration at which the molecules double/half the rate of the fluorescence quenching: fitted stretched exponential, rate at 2 ms, DC22:1PC LUVs; for rate of quencher influx (rate of stretched exponential): 260 nM gA, mean±SD, n>10, control 36±6
# Protocol: 24 hours before fluorescence measurements, ANTS-filled liposomes were mixed 1:20 in S_Na_Buffer. For the portion of liposomes that are to be doped with gramicidin, the desired amount of gramicidins was added at this time. […] Gramicidin diluted in DMSO was used, but the added DMSO was kept to an absolute minimum (<0.1% of volume) as DMSO of >0.5% affects bilayer properties. The solution was stored at 12-13° C. in the dark.
# The modifier in question was diluted in DMSO. The same amount of DMSO was added to all samples, including control.
# For each condition: • 1. Use 1.5 mL of diluted ANTS-liposomes for each condition (compound, concentration). • 2. Add compound at the desired concentration and incubate for 10 min at 25° C. (keep in dark), or DMSO for controls. • 3. Record fluorescence, x8 repeats, with S_Na_Buffer (the first four should be removed due to mixing). • 4. Record fluorescence, x12 repeats, with S_Tl_Quencher (the first four should also be removed due to mixing).
# Generate fluorescent liposomes. […] 1,2-Dierucoyl-sn-Glycero-3-Phosphocholine lipids, from Avanti Polar Lipids (Alabaster, Ala.), were bought in a lipid/chloroform solution and used without further purification. For each batch of vesicles, the lipid/chloroform solution was dried under nitrogen and then further dried in a dessicator under vacuum overnight to fully remove the chloroform. The dried lipid film was rehydrated in 100 mM NaNO3, 25 mM ANTS, 10 mM HEPES at pH 7.0 at room temperature over night, volume was adjusted to give a 10 mM lipid concentration. The suspension was then sonicated in a low power sonicator for 1 min, subjected to 5-6 freeze thaw cycles and extruded 21 times, at room temperature, using Avanti mini-extruder, Avanti Polar Lipids (Alabaster, Ala.), and a 0.1 μm Polycarbonate Membrane filter. External ANTS was removed by filtering though a PD-10 Desalting column, GE Healthcare (Piscataway, N.J.). Prepared ANTS-LUV stock was stored at 12-13° C. in the dark for a maximum of seven days. Before the fluorescence experiments ANTS-LUV stock was diluted 1:20 with 140 mM NaNO3, 10 mM HEPES, pH 7.0 buffer. For the portion of vesicles to be doped with gA the desired amount of gramicidin from Bacillus aneurinolyticus, Sigma Chemical Co. (St. Louis, Mo.), diluted in dimethylsulfoxide (DMSO) was added and incubated for 24 hours at 12-13° C. in the dark.
# The final DMSO concentrations were kept consistent for all samples and under 0.5% with the exception of when DMSO was tested, then listed amounts where used and no DMSO was added to controls.
# The fluorescence was measured using a SX.20 Stopped-Flow Spectrometer (Applied Photophysics, Leatherhead, UK), with a 150-W Xenon lamp, a two sample rapid mixing unit with machine dead time˜1.2 ms and a thermostatting water bath set to 25° C. The samples were excited at X=352 nm and fluorescence was recorded though λ=455 nm high pass filter with Pro-Data control software from Applied Photophysics, sampling 5000 points a second. For each sample at least 10 repeated mixing trials were measured, from two or more vesicle preparations. Each repeat was separately analyzed using MATLAB v7.4, The MathWorks, Inc (Natick, Mass.). The time course of fluorescence quenching was normalized to the average fluorescence without quencher, for that particular sample, and the first 2-100 ms of the time course was fitted with a stretched exponential. The initial influx rate is quantified as the rate of the stretched exponential at 2 ms.
# [2] = system: gA channel in DC18:1PC/n-decane bilayers; details: cited from earlier work; for Single channel: concentration at which the molecule double/half gA channel lifetime: standard bilayer-punch electrophysiological methods
# Sequence of Shaker potassium channel (P08510 whole entry): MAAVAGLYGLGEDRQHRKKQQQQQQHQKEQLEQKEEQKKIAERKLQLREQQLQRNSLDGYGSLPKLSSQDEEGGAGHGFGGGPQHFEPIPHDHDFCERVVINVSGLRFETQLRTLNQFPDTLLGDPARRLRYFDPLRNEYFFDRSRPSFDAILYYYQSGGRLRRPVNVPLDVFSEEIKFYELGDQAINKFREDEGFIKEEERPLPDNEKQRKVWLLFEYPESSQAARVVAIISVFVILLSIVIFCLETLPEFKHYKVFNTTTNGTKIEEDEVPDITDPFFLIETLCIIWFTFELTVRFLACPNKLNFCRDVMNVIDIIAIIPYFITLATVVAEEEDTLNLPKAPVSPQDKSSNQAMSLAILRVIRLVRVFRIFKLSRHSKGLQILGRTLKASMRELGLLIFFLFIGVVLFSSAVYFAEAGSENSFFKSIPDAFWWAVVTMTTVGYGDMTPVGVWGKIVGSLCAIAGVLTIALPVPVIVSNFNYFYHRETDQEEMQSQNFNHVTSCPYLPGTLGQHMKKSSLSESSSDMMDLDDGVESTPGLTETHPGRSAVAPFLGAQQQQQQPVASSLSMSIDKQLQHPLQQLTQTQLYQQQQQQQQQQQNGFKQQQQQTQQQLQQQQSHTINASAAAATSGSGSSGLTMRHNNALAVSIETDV
Compound,Single channel: concentration at which the molecule double/half gA channel lifetime [2],Flourescence: concentration at which the molecules double/half the rate of the fluorescence quenching [1],also measured
NCCc1c(SSc2[nH]c3cc(Br)ccc3c2CCN)[nH]c2cc(Br)ccc12 [BrMT],,,"Shaker potassium channel activation (Shaker potassium channel): slows; effect on lipid bilayer properties (gA channel activity, stopped-flow) ([1]; stopped-flow experiments): altered lipid bilayer properties"
[Gd+3] [Gd^3+],> 30 µM,<1000,
Oc1cc2c(cc1O)CN(C(=S)NCCc1ccc(Cl)cc1)CCC2 [Capsazepine],4 µM,16,
COc1cc(CNC(=O)CCCC/C=C/C(C)C)ccc1O [Capsaicin],25 µM,21,"rate of quencher influx (rate of stretched exponential) ([1]; 10 μM capsaicin): 69±6; rate of quencher influx (rate of stretched exponential) ([1]; 30 μM capsaicin): 85±8; rate of quencher influx (rate of stretched exponential) ([1]; 90 μM capsaicin): 247±27; rate of fluorescence quenching (Tl+ influx) in the presence of gramicidin ([1]; 10, 30, 90 μM, concentration dependent): increased"
CCCCCCCCO[C@@H]1O[C@H](CO)[C@@H](O)[C@H](O)[C@H]1O [β-octylglucoside],270 µM,325,
O=c1c(-c2ccc(O)cc2)coc2cc(O)cc(O)c12 [Genistein],25 µM,22,
C[S+](C)[O-] [Dimethyl sulfoxide],,"340,000","Single channel: concentration at which the molecule double/half gA channel lifetime ([2]; in µM): >410,000; amount that affects bilayer properties ([1]; % of volume): > 0.5%"
OC(c1cc(C(F)(F)F)nc2c(C(F)(F)F)cccc12)C1CCCCN1 (centres unmarked) [Mefloquine],6 µM,37,gA channel frequency ([2]; single-channel electrophysiology): decreases
O=c1c(-c2ccc(O)cc2)coc2cc(O[C@@H]3O[C@H](CO)[C@@H](O)[C@H](O)[C@H]3O)cc(O)c12 [Genistin],>>30,910,
Triton X-100,9 µM,13,
(−)-epigallocatechin gallate,0.25 µM,12,effect on gA channel conductance ([2]; single-channel): causes conductance flickers or sub-conductance states
